Assays:
Format in all cases: in vivo
Mentha arvensis cv. Kosi [1] = experiment: Field testing of identified compounds, essential oil content; conditions: for Content of Essential Oil (%): 2 mM spray at onset of maturity, 15 days before harvest, water control 0.66, LSD (p = 0.05) 0.06
Procedure: (§1) The eight chemicals selected in the previous example for their effects on aromatic plants were subsequently field tested using 2 mM solutions of each chemical in sterilized distilled water. The field tests were performed on Pelargonium graveolens cv. Bipuli and Mentha arvensis cv. […] The plants were sprayed with the 2 mM solutions of the chemicals at the onset of maturity, 15 days before harvest. Plants sprayed with sterilized distilled water served as a control group.

[2] = test system: Pelargonium graveolens cv. Bipuli; experiment: as above; conditions: for Content of Essential Oil (%): 2 mM spray at onset of maturity, 15 days before harvest, water control 0.13, LSD (p = 0.05) 0.01; for change in essential oil content (in words): stated for the field tests of Table 1 (both plants) without naming the plant
Procedure: as §1

[3] = test system: Chamomilla recutita, Artemisia pallens, Pelargonium graveolens, and Mentha arvensis; experiment: Screening of resistance-inducing chemicals on potted aromatic plants under glasshouse conditions; conditions: plants in pots, four aromatic plants
Description: In this example, fifteen chemicals known to induce resistance in plants were screened by applying the chemicals to four varieties of aromatic plants in pots. The four aromatic plants used in this screening included: Chamomilla recutita, Artemisia pallens, Pelargonium graveolens, and Mentha arvensis. […] These eight chemicals include isonicotinamide, DL-2 amino butyric acid, 4-chlorosalicylic acid, 2-amino isobutyric acid, o-acetyl salicylic acid, amino salicylic acid, salicylic acid, and 5-nitrosalicylic acid.

Mentha arvensis cv. Kosi [4] = experiment: Optimal crop maturity stage for chemical application, essential oil content; conditions: 2 mM spray, LSD (p = 0.05) 0.07
Procedure: In this example, three of the chemicals described above were further investigated to determine the optimal crop maturity stage for applying the formulation. The three chemicals used in this example were DL-2 amino butyric acid, isonicotinamide, and salicylic acid, all at concentrations of 2 mM. The solutions were tested on Mentha arvensis cv. Kosi planted in a randomized block design with 5 replications. In these experiments, the crops were sprayed at 4 different stages of growth and development including 10-day-old crops, 50-day-old crops, 80-day-old crops, and 100-day-old crops.

[5] = test system: Pelargonium graveolens cv. Bipuli; experiment: Large scale field testing at several concentrations, essential oil content; conditions: for Content of Essential Oil (%): distilled 15 days after spray, water 0.16, LSD (p = 0.05) 0.01
Procedure: (§2) In the present example, field experiments were conducted, wherein 6 larger plots of Pelargonium graveolens cv. Bipuli (about 25 m^2) were sprayed with solutions of DL-2 amino butyric acid at several different concentrations. An equal number of plots sprayed with sterilized distilled water served as a control group. At least 20 samples of herbage from the sprayed plots and at least 20 samples of herbage from the control plots were distilled in Clevenger type glass apparatus 15 days after spray.

Mentha arvensis cv. Kosi [6] = experiment: Further large plot field testing at about 206 mg/L, essential oil content
Procedure: as §2
(§3) Further field testing involved samples of herbage of both Pelargonium graveolens cv. Bipuli and Mentha arvensis cv. Kosi being treated with a solution of DL-2 amino butyric acid at a concentration of about 206 mg/L in water. Similarly to the above tests, large plots were sprayed with the DL-2 amino butyric acid solution, and samples of herbage from both the sprayed plots and the control plots were examined for their essential oil content.

[7] = test system: Pelargonium graveolens cv. Bipuli; experiment: as above
Procedure: as §2, §3

[8] = age of crop at spray 10 days, water 0.67
[9] = age of crop at spray 50 days, water 0.67
[10] = age of crop at spray 80 days, water 0.68
[11] = age of crop at spray 100 days, water 0.66
[12] = about 206 mg/L, compared to herbage samples treated only with water
[13] = 2 mM spray, versus water control

Structure (SMILES) | Content of Essential Oil (%) (Mentha arvensis cv. Kosi [1]) | Content of Essential Oil (%) [2] [%] | change in essential oil content (in words) ([2]; 2 mM spray) | improving growth and herbage and/or essential oil content [3] | Content of Essential Oil (%) (Mentha arvensis cv. Kosi [4]; [8]) | Content of Essential Oil (%) (Mentha arvensis cv. Kosi [4]; [9]) | Content of Essential Oil (%) (Mentha arvensis cv. Kosi [4]; [10]) | Content of Essential Oil (%) (Mentha arvensis cv. Kosi [4]; [11]) | Content of Essential Oil (%) ([5]; 0.1 mM solution) | Content of Essential Oil (%) ([5]; 1.0 mM solution) | increase in essential oil content ([5]; 2 mM and 4 mM, versus water) | Content of Essential Oil (%) ([5]; 2.0 mM solution) | Content of Essential Oil (%) ([5]; 4.0 mM solution) | Content of Essential Oil (Mean % ± S.E.) (Mentha arvensis cv. Kosi [6]; about 206 mg/L in water, n ≧ 20 herbage samples, water 0.74 ± 0.02) [%] | increase in essential oil content (Mentha arvensis cv. Kosi [6]; [12]) | Content of Essential Oil (Mean % ± S.E.) ([7]; about 206 mg/L in water, n ≧ 20 herbage samples, water 0.14 ± 0.01) [%] | increase in essential oil content [7, 12] | increase in essential oil content (Mentha arvensis cv. Kosi [1]; [13]) | increase in essential oil content [2, 13]
NC(=O)c1ccncc1 [isonicotinamide] | 0.70 | 0.14 | slight increase | particularly effective | 0.71 | 0.70 | 0.70 | 0.70 |  |  |  |  |  |  |  |  |  |  | 
O=C(O)c1cc([N+](=O)[O-])ccc1O [5-nitrosalicylic acid] | 0.73 | 0.13 |  | particularly effective |  |  |  |  |  |  |  |  |  |  |  |  |  |  | 
CCC(N)C(=O)O (racemic) [DL-2 amino butyric acid] | 0.84 | 0.19 |  | particularly effective | 0.80 | 0.82 | 0.81 | 0.84 | 0.16 | 0.17 | about 25% | 0.20 | 0.20 | 0.89 ± 0.02 | about 20% | 0.19 ± 0.01 | about 36% | about 27% | about 46%
O=C(O)c1ccc(Cl)cc1O [4-chloro salicylic acid] | 0.68 | 0.13 |  | particularly effective |  |  |  |  |  |  |  |  |  |  |  |  |  |  | 
O=C(O)c1ccccc1O [salicylic acid] | 0.70 | 0.11 | slight reduction | particularly effective | 0.70 | 0.68 | 0.70 | 0.70 |  |  |  |  |  |  |  |  |  |  | 
CC(C)(N)C(=O)O [2-amino isobutyric acid] | 0.72 | 0.12 |  | particularly effective |  |  |  |  |  |  |  |  |  |  |  |  |  |  | 

Reference: patent US20030089034A1, “Formulation and method for increasing the essential oil content in aromatic crops” (priority 2001, published 2003)
